According to patent US20260258084A1, “New Peptides as Selective IL-23 Receptor Antagonists” (Sanofi, priority 2022, published 2026):
pIC50: −log10 of the molar value. ≈ marks a conversion by molar mass, not a printed value. Read-outs that look alike come from different tables or passages of the source. Starred links: 1 amine or outer side, 2 acyl side, 3 side chain; linkers in the order of their positions; H or OH if unused. Positions of bridges follow the written chain, without caps; N, C: chain ends. Non-standard residues stand in square brackets, D forms with d. Residues, ends and D or L forms follow the SMILES beside them. *: point of attachment. X5 = CN(C(=O)CCC(=O)[*:3])[C@@H](CS[*:2])C(=O)[*:1]; Trp(7-Me) = Cc1cccc2c(C[C@H](N)C(=O)O)c[nH]c12; X1 = O=C(CCCCN[*:3])N[C@@H](CS[*:2])C(=O)[*:1]; αMeLys(Me2) = CN(C)CCCC[C@](C)(N)C(=O)O; 2Nal = N[C@@H](Cc1ccc2ccccc2c1)C(=O)O; d2Nal = N[C@H](Cc1ccc2ccccc2c1)C(=O)O; 3Pal = N[C@@H](Cc1cccnc1)C(=O)O; Lys(Me) = CNCCCC[C@H](N)C(=O)O; αMeL = CC(C)C[C@](C)(N)C(=O)O; Suc = O=C(CCC(=O)[*:2])[*:1]; αMeP = C[C@@]1(C(=O)O)CCCN1; Thp = NC1(C(=O)O)CCOCC1; Me2NCH2CH2 = CN(C)CC*; Aib = CC(C)(N)C(=O)O; Ava = NCCCCC(=O)O; Sar = CNCC(=O)O

Tests used:
[1] = biological target: T1, human interleukin-23 receptor (recombinant human IL-23R-Fc chimera) (Homo sapiens, UniProt Q5VWK5); assay: Human ELISA IL23/IL23R (assay for specific human IL23R antagonists); format: binding; settings: Table 10; read-out: Human ELISA IL23/IL23R IC50
T1 construct: Fc (IgG Fc fusion)
Method in brief: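 Plates coated overnight at 4 °C with human IL23 ([…]), blocked, then serially diluted peptides added with recombinant human IL-23R-Fc (0.1 μg/ml final) for 60 min at room temperature. Bound receptor detected with anti-human IgG1-HRP and fluorogenic peroxidase substrate.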

[2] = system: IL-23 induced STAT3 signaling in HEK-Blue™ IL-23 cells; assay: IL-23 induced STAT3 signaling in HEK-Blue IL-23 cells (SEAP reporter); format: cell-based; settings: human IL23 0.25 ng/ml, read-out: pSTAT3
Method in brief: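 HEK-Blue IL-23 cells (10,000/well) pre-incubated 60 min at 37 °C with serially diluted peptides, then stimulated overnight with human IL-23 (0.25 ng/ml final). STAT3-driven SEAP in supernatant detected with QUANTI-Blue after 45 min at RT (OD 620-655 nm); dose-response curves fitted.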

[3] = Solubility testing of peptides at different pH; format: physicochemical; settings: target concentration 1 mg/ml, 2 hours agitation
Method in brief: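 Solid obtained by drying down DMSO stock was taken up at 1 mg/mL in 50 mM HCl pH 1.2 or 50 mM phosphate pH 6.5, 7.4 or 9.0, agitated gently for 2 h, then filtered (0.45 μm). Solubility by UPLC-UV peak area against a DMSO reference standard curve, corrected for extinction coefficients.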

Pepsin = system: T2, Pepsin; assay: Protease stability in simulated gastric fluid (Pepsin-SGF, FaSSGF); format: in vitro ADME; settings: simulated gastric fluid with pepsin (Pepsin-SGF), 60 min, 1 μM peptide, 37° C., read-out: FaSSGF 60 (min), remaining percent of peptide
T2 construct: purchased Merck Millipore
Method in brief: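 Peptides at 1 μM final in pepsin-containing SGF at 37° C, sampled at 0, 60, 120 and 240 min, quenched with ethanol (0.1% HCOOH). Analysed by LCMS/MS; percent remaining from peak area relative to time 0 (set to 100%).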

Pancreatin = assay: Protease stability in simulated intestinal fluid (Pancreatin-SIF, FaSSIF); format: in vitro ADME; settings: 1 μM peptide, 37° C.; for remaining at 1 h, 1 µM: 60 min, read-out: FaSSIF 60 (min), remaining percent of peptide; for remaining at 2 h, 1 µM: 120 min, read-out: FaSSIF 120 (min), remaining percent of peptide; for remaining at 4 h, 1 µM: 240 min, read-out: FaSSIF 240 (min), remaining percent of peptide
Method in brief: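 Peptide (1 μM final) was incubated at 37° C in simulated intestinal fluid containing pancreatin (1 mg per 10 mL SIF concentrate). Samples were quenched with ethanol/0.1% HCOOH at 0, 60, 120 and 240 min and analysed by LC-MS/MS. Percent remaining is the peak area relative to time 0 (100%).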

[4] = 50 mM HCl buffer, 50 mM HCl pH 1.2, read-out: Solubility Buffer pH 1.2
[5] = 50 mM phosphate buffer pH 6.5, read-out: Solubility Buffer pH 6.5
[6] = 50 mM phosphate buffer pH 7.4, read-out: Solubility Buffer pH 7.4
[7] = 50 mM phosphate buffer pH 9.0, read-out: Solubility Buffer pH 9.0

pIC50 [1] | solubility at 2 h [3, 4] [µg/mL] | solubility at 2 h [3, 5] [µg/mL] | solubility at 2 h [3, 6] [µg/mL] | solubility at 2 h [3, 7] [µg/mL] | remaining at 1 h, 1 µM (Pepsin) [%] | remaining at 1 h, 1 µM (Pancreatin) [%] | remaining at 2 h, 1 µM (Pancreatin) [%] | remaining at 4 h, 1 µM (Pancreatin) [%] | SMILES | pIC50 [2]
9.51 | ≥ 1080 | ≥ 1010 | ≥ 970 | 230 (≈ 126 µM) | 91 | 89 | 77 | 75 | CC(=O)NCCCC[C@@H]1NC(=O)[C@H](Cc2c[nH]c3c(C)cccc23)NC(=O)[C@H]([C@@H](C)O)NC(=O)[C@H](CC(N)=O)NC(=O)[C@@H]2CSSC[C@H](NC1=O)C(=O)N[C@@H](Cc1ccc(OCCN(C)C)cc1)C(=O)N[C@@H](Cc1ccc3ccccc3c1)C(=O)NC1(CCOCC1)C(=O)N[C@H](C(=O)N[C@@H](CC(N)=O)C(=O)N[C@@H](Cc1c[nH]cn1)C(N)=O)CCC(=O)NCCCCC(=O)N2 [compound 21] ([Ava]CNT[Trp(7-Me)]K(Ac)CY(Me2NCH2CH2)[2Nal][Thp]ENH-NH2; disulfide 2-7; lactam N-11) | 8.57
9.39 | ≥ 910 | ≥ 980 | ≥ 910 | – | 95 | 90 | 86 | 81 | Cc1cccc2c(C[C@@H]3NC(=O)[C@H]([C@@H](C)O)NC(=O)[C@H](CC(N)=O)NC(=O)[C@@H]4CSSC[C@H](NC(=O)[C@H](CCC(N)=O)NC3=O)C(=O)N[C@@H](Cc3ccc(OCCN(C)C)cc3)C(=O)N[C@@H](Cc3ccc5ccccc5c3)C(=O)N[C@@](C)(CC(C)C)C(=O)N[C@H](C(=O)N[C@@H](CC(N)=O)C(=O)N[C@@H](Cc3cccnc3)C(=O)N(C)CC(N)=O)CCC(=O)NCCCCC(=O)N4)c[nH]c12 [compound 63] ([Ava]CNT[Trp(7-Me)]QCY(Me2NCH2CH2)[2Nal][αMeL]EN[3Pal][Sar]-NH2; disulfide 2-7; lactam N-11) | 9.70
9.62 | ≥ 1090 | ≥ 1030 | ≥ 1090 | – | 77 | 98 | 97 | 97 | CC(=O)NCCCC[C@@H]1NC(=O)[C@H](Cc2c[nH]c3ccccc23)NC(=O)[C@@H](NC(C)=O)CCCCNC(=O)[C@@H]2CSSC[C@H](NC1=O)C(=O)N[C@@H](Cc1ccc(OCCN(C)C)cc1)C(=O)N[C@H](Cc1ccc3ccccc3c1)C(=O)N[C@@](C)(CCCCN(C)C)C(=O)N[C@H](C(=O)N[C@@H](CC(N)=O)C(=O)N[C@@H](Cc1cccnc1)C(=O)N(C)CC(N)=O)CCC(=O)NCCCCC(=O)N2 [compound 59] (Ac-KWK(Ac)CY(Me2NCH2CH2)[d2Nal][αMeLys(Me2)]EN[3Pal][Sar]-NH2; linker 1-4-8 via X1) | 10.15
9.14 | 100 (≈ 60.6 µM) | < 50 | < 50 | – | 2 | 72 | 74 | 58 | COc1ccc(C[C@@H]2NC(=O)[C@@H]3CSSC[C@H](NC(=O)CCCCNC(=O)CC[C@@H](C(=O)N[C@@H](CC(N)=O)C(=O)N[C@@H](CC(N)=O)C(N)=O)NC(=O)C(C)(C)NC(=O)[C@H](Cc4ccc5ccccc5c4)NC2=O)C(=O)N[C@@H](CC(N)=O)C(=O)N[C@@H]([C@@H](C)O)C(=O)N[C@@H](Cc2c[nH]c4ccccc24)C(=O)N[C@@H](CCC(N)=O)C(=O)N3)cc1 [compound 1] ([Ava]CNTWQCY(Me)[2Nal][Aib]ENN-NH2; disulfide 2-7; lactam N-11) | 7.73
9.28 | ≥ 1630 | ≥ 1040 | ≥ 1290 | ≥ 1130 | 94 | 94 | 94 | 88 | CC(=O)NCCCC[C@@H]1NC(=O)[C@H](Cc2c[nH]c3c(C)cccc23)NC(=O)[C@@H](NC(C)=O)CCCCNC(=O)[C@@H]2CSSC[C@H](NC1=O)C(=O)N[C@@H](Cc1ccc(OCCN(C)C)cc1)C(=O)N[C@@H](Cc1ccc3ccccc3c1)C(=O)NC1(CCOCC1)C(=O)N[C@H](C(=O)N[C@@H](CC(N)=O)C(=O)N[C@@H](Cc1cccnc1)C(=O)N(C)CC(N)=O)CCC(=O)NCCCCC(=O)N2 [compound 66] (Ac-K[Trp(7-Me)]K(Ac)CY(Me2NCH2CH2)[2Nal][Thp]EN[3Pal][Sar]-NH2; linker 1-4-8 via X1) | 9.82
9.40 | ≥ 1110 | ≥ 1040 | ≥ 960 | – | 91 | 89 | 80 | 82 | CC(=O)NCCCC[C@@H]1NC(=O)[C@H](Cc2c[nH]c3c(C)cccc23)NC(=O)[C@H]([C@@H](C)O)NC(=O)[C@H](CC(N)=O)NC(=O)[C@@H]2CSSC[C@H](NC1=O)C(=O)N[C@@H](Cc1ccc(OCCN(C)C)cc1)C(=O)N[C@@H](Cc1ccc3ccccc3c1)C(=O)NC1(CCOCC1)C(=O)N[C@H](C(=O)N[C@@H](CC(N)=O)C(=O)N[C@@H](Cc1c[nH]cn1)C(=O)N1CCC[C@@]1(C)C(N)=O)CCC(=O)NCCCCC(=O)N2 [compound 55] ([Ava]CNT[Trp(7-Me)]K(Ac)CY(Me2NCH2CH2)[2Nal][Thp]ENH[αMeP]-NH2; disulfide 2-7; lactam N-11) | 9.02
9.27 | ≥ 1390 | ≥ 980 | 330 (≈ 174 µM) | 180 (≈ 95.1 µM) | 92 | 87 | 84 | 78 | CC(=O)NCCCC[C@@H]1NC(=O)[C@H](Cc2c[nH]c3c(C)cccc23)NC(=O)[C@@H](NC(C)=O)CCCCNC(=O)[C@@H]2CSSC[C@H](NC1=O)C(=O)N[C@@H](Cc1ccc(OCCN(C)C)cc1)C(=O)N[C@@H](Cc1ccc3ccccc3c1)C(=O)NC1(CCOCC1)C(=O)N[C@H](C(=O)N[C@@H](CC(N)=O)C(=O)N[C@@H](Cc1cccnc1)C(=O)N(C)CC(N)=O)CCCCN(C)C(=O)CCC(=O)N2C [compound 74] (Ac-K[Trp(7-Me)]K(Ac)CY(Me2NCH2CH2)[2Nal][Thp][Lys(Me)]N[3Pal][Sar]-NH2; linker 1-4-8 via X5) | 9.92
9.28 | – | – | – | – | 96 | 99 | 97 | 96 | Cc1cccc2c(C[C@@H]3NC(=O)[C@H]([C@@H](C)O)NC(=O)[C@H](CC(N)=O)NC(=O)[C@@H]4CSSC[C@H](NC(=O)[C@H](CC(C)C)NC3=O)C(=O)N[C@@H](Cc3ccc(OCCN(C)C)cc3)C(=O)N[C@@H](Cc3ccc5ccccc5c3)C(=O)N[C@@](C)(CCCCN(C)C)C(=O)N[C@H](C(=O)N[C@@H](CC(N)=O)C(=O)N[C@@H](Cc3cccnc3)C(=O)N(C)CC(N)=O)CCCCNC(=O)CCC(=O)N4)c[nH]c12 [compound 154] (CNT[Trp(7-Me)]LCY(Me2NCH2CH2)[2Nal][αMeLys(Me2)]KN[3Pal][Sar]-NH2; disulfide 1-6; linker N-10 via Suc) | 10.10
9.57 | – | – | – | – | 91 | 96 | 92 | 92 | CC(=O)NCCCC[C@@H]1NC(=O)[C@H](Cc2c[nH]c3c(C)cccc23)NC(=O)[C@H]([C@@H](C)O)NC(=O)[C@H](CC(N)=O)NC(=O)[C@@H]2CSSC[C@H](NC1=O)C(=O)N[C@@H](Cc1ccc(OCCN(C)C)cc1)C(=O)N[C@@H](Cc1ccc3ccccc3c1)C(=O)NC(C)(C)C(=O)N[C@H](C(=O)N[C@@H](CC(N)=O)C(=O)N[C@@H](Cc1cccnc1)C(=O)N(C)CC(N)=O)CCC(=O)NCCCCC(=O)N2 [compound 64] ([Ava]CNT[Trp(7-Me)]K(Ac)CY(Me2NCH2CH2)[2Nal][Aib]EN[3Pal][Sar]-NH2; disulfide 2-7; lactam N-11) | 9.66
